For assay [1], the target named is T1, human ERα (Homo sapiens, UniProt P03372).
T1 sequence (P03372 1-595): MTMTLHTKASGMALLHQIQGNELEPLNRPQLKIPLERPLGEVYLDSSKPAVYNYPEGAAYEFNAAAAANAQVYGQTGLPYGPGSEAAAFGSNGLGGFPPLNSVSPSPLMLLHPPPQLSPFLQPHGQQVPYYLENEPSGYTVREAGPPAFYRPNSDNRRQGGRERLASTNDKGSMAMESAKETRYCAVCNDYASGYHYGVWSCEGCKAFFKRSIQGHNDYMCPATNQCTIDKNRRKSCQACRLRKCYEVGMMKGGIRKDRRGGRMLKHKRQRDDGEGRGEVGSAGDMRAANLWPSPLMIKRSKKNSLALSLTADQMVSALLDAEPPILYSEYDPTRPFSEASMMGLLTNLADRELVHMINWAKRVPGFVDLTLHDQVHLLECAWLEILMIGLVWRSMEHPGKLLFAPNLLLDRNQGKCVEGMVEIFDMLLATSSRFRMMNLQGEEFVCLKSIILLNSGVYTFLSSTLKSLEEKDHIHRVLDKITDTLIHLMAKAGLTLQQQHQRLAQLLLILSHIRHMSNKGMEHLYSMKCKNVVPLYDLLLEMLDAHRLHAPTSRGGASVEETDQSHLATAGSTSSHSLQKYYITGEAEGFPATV
As to the kind of experiment: NF-κB luciferase reporter (ER/NF-KB-luc) in Ad5-wt-hERα infected HAECT-1 cells. Particulars: for IC50: ER/NF-KB-luc IC50, Ad5-wt-ER infected HAECT-1 cells, IL-1β; for Emax: HAECT1, read-out: ER/NF-KB-luc % E2, efficacy relative to the maximal inhibition observed with E2.

The target in assay [2] is T1, human ERα. Briefly: Creatine kinase expression (ER/CK) in Ad5-wt-hERα infected HAECT-1 cells. Particulars: for ER/CK % E2: efficacy relative to the maximal stimulation observed with E2.

The record followed here is US7241791B2, “Substituted 4-(indazol-3-yl)phenols” (Wyeth, priority 2002, dated 2007).

Consider `Cc1cccc2c(-c3ccc(O)cc3)n[nH]c12` [Example 34, 4-(7-methyl-1H-indazol-3-yl) phenol], for which, in assay [1], the IC50 – broadly, the concentration that gives 50% inhibition – came to 66 nM and the Emax was determined as 115%. In assay [2], the EC50 (as a rule, the concentration giving half of the maximal effect) is 137 nM and the “ER/CK % E2” value stood at 87 % E2.

Turning to `CCCn1nc2c(C)cccc2c1-c1ccc(O)cc1` [Example 38, 4-[7-methyl-2-propyl-2H-indazol-3-yl]phenol], the Emax in assay [1] worked out at 89%. Also, in assay [2], the EC50 came to 25 nM and the “ER/CK % E2” value was 70 % E2.

Turning to `Cc1cccc2c(-c3ccc(O)cc3)nn(C(C)C)c12` [Example 39, 4-(1-isopropyl-7-methyl-1H-indazol-3-yl)phenol], in assay [1], the IC50 stood at 9 nM and the Emax amounted to 89%. Moreover, in assay [2], the half-maximal effective concentration (EC50) was determined as 57 nM and the “ER/CK % E2” value was 46 % E2.

For the compound `Cc1cccc2c(-c3ccc(O)cc3)n(C(C)C)nc12` [Example 40, 4-[2-isopropyl-7-methyl-2H-indazol-3-yl]phenol], the Emax in assay [1] turned out to be 108%. Also, in assay [2], the response was half-maximal at 22 nM (EC50) and the “ER/CK % E2” value is given as 79 % E2.

As for `CCCCCn1nc(-c2ccc(O)cc2)c2cccc(Cl)c21` [Example 41, 4-(7-chloro-1-pentyl-1H-indazol-3-yl)phenol], in assay [1], half-maximal inhibition (IC50) was put at 95 nM and the Emax stood at 85%. In assay [2], the EC50 stood at 415 nM and the “ER/CK % E2” value came out at 39 % E2.

`CCCn1nc2c(Cl)cccc2c1-c1ccc(O)cc1` [Example 44, 4-[7-chloro-2-propyl-2H-indazol-3-yl]phenol]: in assay [1], the IC50 came out at 43 nM and the Emax was found to be 90%. Also, in assay [2], a half-maximal effect (EC50) was put at 309 nM and the “ER/CK % E2” value was 48 % E2.

For the compound `CC(C)n1nc(-c2ccc(O)cc2)c2cccc(Cl)c21` [Example 45, 4-(7-chloro-1-isopropyl-1H-indazol-3-yl)pheno], in assay [1], half-maximal inhibition (IC50) was put at 31 nM and the Emax amounted to 86%. Besides, in assay [2], the EC50 is 121 nM and the “ER/CK % E2” value is recorded as 43 % E2.

As to `CC(C)n1nc2c(Cl)cccc2c1-c1ccc(O)cc1` [Example 46, 4-(7-chloro-2-isopropyl-2H-indazol-3-yl)phenol], in assay [1], the Emax turned out to be 102%. The “ER/CK % E2” value in assay [2] was found to be 67 % E2.

Take `CCCCCn1nc(-c2ccc(O)cc2)c2cccc(C(F)(F)F)c21` [Example 47, 4-[1-pentyl-7-(trifluoromethyl)-1H-indazol-3-yl]phenol]: in assay [1], inhibition was half-maximal at 97 nM (IC50) and the Emax was 94%. In assay [2], a half-maximal effect (EC50) was put at 13 nM and the “ER/CK % E2” value was determined as 26 % E2.

As to `CCCn1nc(-c2ccc(O)cc2)c2cccc(C(F)(F)F)c21` [Example 48, 4-[1-propyl-7-(trifluoromethyl)-1H-indazol-3-yl]phenol], in assay [1], 42 nM corresponded to half-maximal inhibition (IC50) and the Emax came out at 107%. Moreover, in assay [2], it took 79 nM to reach a half-maximal effect (EC50) and the “ER/CK % E2” value was 49 % E2.

Regarding `C=CCn1nc(-c2ccc(O)cc2)c2cccc(F)c21` [Example 50, 4-(1-allyl-7-fluoro-1H-indazol-3-yl)phenol], in assay [1], the IC50 was 106 nM and the Emax worked out at 84%. Besides, in assay [2], a half-maximal response (EC50) required 327 nM and the “ER/CK % E2” value is listed as 43 % E2.

Regarding `Oc1ccc(-c2c3cccc(Cl)c3nn2C2CCCC2)cc1` [Example 52, 4-(7-chloro-2-cyclopentyl-2H-indazol-3-yl)phenol], in assay [1], half-maximal inhibition (IC50) required 17 nM and the Emax was found to be 76%. Also, in assay [2], a half-maximal effect (EC50) was put at 111 nM and the “ER/CK % E2” value stood at 27 % E2.

Consider `CCCn1nc(-c2ccc(O)cc2)c2cccc(F)c21` [Example 53, 4-(7-fluoro-1-propyl-1H-indazol-3-yl)phenol], for which, in assay [1], inhibition was half-maximal at 58 nM (IC50) and the Emax is 84%. Moreover, in assay [2], it took 184 nM to reach a half-maximal effect (EC50) and the “ER/CK % E2” value came to 31 % E2.

For `CC(C)n1nc(-c2ccc(O)cc2)c2cccc(F)c21` [Example 55, 4-(7-fluoro-1-isopropyl-1H-indazol-3-yl)phenol], in assay [1], the 50% inhibitory concentration (IC50) was 26 nM and the Emax is 90%. Further, in assay [2], it took 401 nM to reach a half-maximal effect (EC50) and the “ER/CK % E2” value is 49 % E2.

In the case of `CC(C)n1nc2c(F)cccc2c1-c1ccc(O)cc1` [Example 56, 4-(7-fluoro-2-isopropyl-2H-indazol-3-yl)phenol], in assay [1], inhibition was half-maximal at 14 nM (IC50) and the Emax was 96%. In addition, in assay [2], the midpoint of the response, the EC50, lay at 477 nM and the “ER/CK % E2” value is 47 % E2.

As to `C=CCn1nc(-c2ccc(O)cc2)c2cccc(C)c21` [Example 57, 4-(1-allyl-7-methyl-1H-indazol-3-yl)phenol], in assay [1], the IC50 was found to be 45 nM and the Emax came to 89%. Moreover, in assay [2], the response was half-maximal at 205 nM (EC50) and the “ER/CK % E2” value came out at 45 % E2.

As to `C=CCn1nc(-c2ccc(O)cc2)c2cccc(C(F)(F)F)c21` [Example 58, 4-[1-allyl-7-(trifluoromethyl)-1H-indazol-3-yl]phenol], in assay [1], the IC50 stood at 20 nM and the Emax came to 100%. In addition, in assay [2], the midpoint of the response, the EC50, lay at 97 nM and the “ER/CK % E2” value was determined as 38 % E2.

With `C=CCn1nc2c(C(F)(F)F)cccc2c1-c1ccc(O)cc1` [Example 59, 4-[2-allyl-7-(trifluoromethyl)-2H-indazol-3-yl]phenol], in assay [1], the IC50 came out at 5 nM and the Emax was determined as 90%. In addition, in assay [2], the EC50 is 133 nM and the “ER/CK % E2” value was 36 % E2.

With `Oc1ccc(-c2c3cccc(F)c3nn2C2CCCC2)cc1` [Example 61, 4-(2-cyclopentyl-7-fluoro-2H-indazol-3-yl)phenol], in assay [1], the IC50 was determined as 50 nM and the Emax is 62%. Besides, in assay [2], it took 76 nM to reach a half-maximal effect (EC50) and the “ER/CK % E2” value amounted to 33 % E2.

Regarding `CC(C)n1nc(-c2ccc(O)cc2O)c2cccc(C(F)(F)F)c21` [Example 65, 4-[1-isopropyl-7-(trifluoromethyl)-1H-indazol-3-yl]benzene-1,3-diol], in assay [1], the IC50 amounted to 41 nM and the Emax is 86%. In addition, in assay [2], the EC50 is 218 nM and the “ER/CK % E2” value is recorded as 42 % E2.

With `Oc1ccc(-c2nn(C3CCCC3)c3c(C(F)(F)F)cccc23)c(O)c1` [Example 66, 4-[1-cyclopentyl-7-(trifluoromethyl)-1H-indazol-3-yl] benzene-1,3-diol], in assay [1], the IC50 turned out to be 29 nM and the Emax turned out to be 56%. Moreover, in assay [2], the EC50 was determined as 17 nM and the “ER/CK % E2” value is 32 % E2.

Take `CCC(CC)Cn1nc(-c2ccc(O)cc2O)c2cccc(C(F)(F)F)c21` [Example 69, 4-[1-(2-ethylbutyl)-7-(trifluoromethyl)-1H-indazol-3-yl]benzene-1,3-diol]: in assay [1], half-maximal inhibition (IC50) was put at 235 nM and the Emax came to 68%. In assay [2], the EC50 amounted to 704 nM and the “ER/CK % E2” value was found to be 32 % E2.

Regarding `C=CCn1nc2c(C(F)(F)F)cccc2c1-c1ccc(O)cc1C` [Example 72, 4-[2-allyl-7-(trifluoromethyl)-2H-indazol-3-yl]-3-methylphenol], in assay [1], the IC50 came to 7 nM and the Emax is 85%. For the same compound, in assay [2], the EC50 came out at 140 nM and the “ER/CK % E2” value is recorded as 46 % E2.

Consider `CCCCCn1nc(-c2ccc(O)cc2O)c2cccc(C(F)(F)F)c21` [Example 73, 4-[1-pentyl-7-(trifluoromethyl)-1H-indazol-3-yl]benzen-1,3-diol], for which, in assay [1], inhibition was half-maximal at 94 nM (IC50) and the Emax was 76%. Moreover, in assay [2], the EC50 was found to be 103 nM and the “ER/CK % E2” value stood at 19 % E2.

In the case of `C=CCn1nc2c(C(F)(F)F)cccc2c1-c1ccc(O)cc1O` [Example 75, 4-[2-allyl-7-(trifluoromethyl)-2H-indazol-3-yl]-1,3-benzenediol], in assay [1], it took 63 nM to reach half-maximal inhibition (IC50) and the Emax amounted to 83%. Besides, in assay [2], it took 982 nM to reach a half-maximal effect (EC50) and the “ER/CK % E2” value came out at 48 % E2.

Turning to `CCCn1nc(-c2ccc(O)cc2C)c2cccc(C(F)(F)F)c21` [Example 76, 3-methyl-4-[1-propyl-7-(trifluoromethyl)-1H-indazol-3-yl]phenol], in assay [1], the IC50 amounted to 22 nM and the Emax came to 86%. For the same compound, in assay [2], the midpoint of the response, the EC50, lay at 57 nM and the “ER/CK % E2” value turned out to be 20 % E2.

Consider `Cc1cc(O)ccc1-c1nn(C(C)C)c2c(Cl)cccc12` [Example 77, 4-(7-chloro-1-isopropyl-1H-indazol-3-yl)-3-methylphenol], for which, in assay [1], the IC50 was determined as 41 nM and the Emax was 87%. For the same compound, in assay [2], the EC50 worked out at 302 nM and the “ER/CK % E2” value is reported as 29 % E2.

Consider `C=CCn1nc2c(Cl)cccc2c1-c1ccc(O)cc1C` [Example 78, 4-(2-allyl-7-chloro-2H-indazol-3-yl)-3-methylphenol], for which, in assay [1], it took 590 nM to reach half-maximal inhibition (IC50) and the Emax was found to be 90%. Also, in assay [2], a half-maximal response (EC50) required 2200 nM and the “ER/CK % E2” value worked out at 32 % E2.

Turning to `CCCn1nc2c(Cl)cccc2c1-c1ccc(O)cc1C` [Example 79, 4-(7-chloro-2-propyl-2H-indazol-3-yl)-3-methylphenol], in assay [1], the IC50 amounted to 92 nM and the Emax stood at 93%. Besides, in assay [2], the EC50 was found to be 734 nM and the “ER/CK % E2” value was determined as 52 % E2.
